Here are results for 17 molecules from US20260256807A1, “SUBSTITUTED PYRAZOLES AND IMIDAZOLES AS OREXIN RECEPTOR ANTAGONISTS COMPOSITION, METHODS FOR TREATING NEUROLOGICAL AND PSYCHOLOGICAL DISORDERS” (HAGER BIOSCIENCES, LLC, priority 2022, published 2026).

The first assay concerns the target T1, human orexin-2 receptor (Homo sapiens, UniProt O43614).
T1 construct: expressed in transfected cells; host or cells: CHO cells (G418 selection)
T1 sequence (O43614 1-444): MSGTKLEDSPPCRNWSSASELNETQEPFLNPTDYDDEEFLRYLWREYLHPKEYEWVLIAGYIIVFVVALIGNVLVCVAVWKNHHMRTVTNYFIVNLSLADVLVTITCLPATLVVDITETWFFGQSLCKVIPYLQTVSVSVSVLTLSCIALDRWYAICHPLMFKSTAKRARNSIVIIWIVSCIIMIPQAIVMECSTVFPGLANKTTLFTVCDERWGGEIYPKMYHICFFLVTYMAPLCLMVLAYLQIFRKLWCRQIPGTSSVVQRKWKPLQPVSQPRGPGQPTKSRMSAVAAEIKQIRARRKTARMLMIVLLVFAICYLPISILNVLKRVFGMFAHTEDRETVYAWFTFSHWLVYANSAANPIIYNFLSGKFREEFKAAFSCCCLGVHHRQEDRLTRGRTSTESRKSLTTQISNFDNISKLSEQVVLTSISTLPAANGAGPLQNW
The experiment in a line: Intracellular calcium (FLIPR) antagonist assay, CHO cells expressing human orexin-2 receptor, 3 nM orexin-A. Format: cell-based. As to conditions: 1 uM compound, orexin-A 3 nM. The procedure: (§1) Antagonistic activities on both orexin receptors (i.e., to identify Orexin Receptor Antagonists) have been measured for each example compound using the in vitro assays (intracellular calcium measurements) as described herein. Other assays may also be used to identify Orexin Receptor Antagonists as would be understood by those of ordinary skill in the art. Chinese hamster ovary (CHO) cells expressing the human orexin-1 receptor and the human orexin-2 receptor, respectively, are grown in culture medium (Ham F-12 with L-Glutamine) containing 300 μg/mL G418, 100 U/mL penicillin, 100 μg/mL streptomycin and 10% heat inactivated fetal calf serum (FCS). The cells are seeded at 20′000 cells/well into 384-well black clear bottom sterile plates (Greiner). The seeded plates are incubated overnight at 37° C. in 5% CO2. Human orexin-A as an agonist is prepared as 1 mM stock solution in MeOH: water (1:1), diluted in HBSS containing 0.1% bovine serum albumin (BSA), NaHC03: 0.375 g/L and 20 mM HEPES for use in the assay at a final concentration of 3 nM.
(§2) Antagonists were prepared as 10 mM stock solution in DMSO, then diluted in 384-well plates using DMSO followed by a transfer of the dilutions into in HBSS containing 0.1% bovine serum albumin (BSA), NaHC03: 0.375 g/L and 20 mM HEPES. On the day of the assay, 50 μL of staining buffer (HBSS containing 1% FCS, 20 mM HEPES, NaHC03: 0.375 g/L, 5 mM probenecid (Sigma) and 3 μM of the fluorescent calcium indicator fluro-4 AM (1 mM stock solution in DMSO, containing 10% pluronic) is added to each well. The 384-well cell-plates are incubated for 50 min at 37° C. in 5% C02 followed by equilibration at RT for 30 min before measurement. Within the Fluorescent Imaging Plate Reader (FLIPR Tetra, Molecular Devices), potential Orexin Receptor Antagonists were added to the plate in a volume of 10 μl/well, incubated for 120 min and finally 10 μL/well of agonist is added. Fluorescence was measured for each well at 1 second intervals, and the height of each fluorescence peak compared to the height of the fluorescence peak induced by 3 nM orexin-A with vehicle in place of antagonist. The IC50 value (the concentration of compound needed to inhibit 50% of the agonistic response) was determined and normalized using the obtained IC50 value of an on-plate reference compound. Optimized conditions were achieved by adjustment of pipetting speed and cell splitting regime. The calculated IC50 values fluctuate depending on the daily cellular assay performance, as is known to those skilled in the art. In the case where IC50 values have been determined several times for the same compound, the geometric mean has been given.
(In general: Calcium assays in cells follow changes in intracellular calcium, usually with a dye or a luminescent sensor.)
In the case of `C[C@@H]1CCN(c2cnc(C(F)(F)F)cn2)CCN1C(=O)c1c(-c2ncccn2)nn2ccccc12` [Example 94], the “OX2R % Inh. @ 1uM” value amounted to 21%.

With `Cc1cc(C)nc(N2CC3CN(C(=O)c4c(-c5ccccc5F)nc5ccccn45)CC3C2)n1` (stereo not shown) [Example 29], the “OX2R % Inh. @ 1uM” value turned out to be 34.14%.

Staying with this assay, now noted: CHO, 1 uM compound, orexin-A 3 nM, read-out: OX2R % Inh. @ 1uM.
As for `C[C@@H]1CCN(c2nc3cc(Cl)ccc3o2)CCN1C(=O)c1c(-c2ccccc2F)nn2ccccc12` [Example 52], the inhibition at 1 µM was 98.7%.

Regarding `C[C@@H]1CCN(c2nc3cc(Cl)ccc3o2)CCN1C(=O)c1c(-c2ccccc2)nn2c1COCC2` [Example 7], the inhibition at 1 µM was determined as 54.5%.

Consider `COc1ccc(N2CC[C@@H](C)N(C(=O)c3c(-c4ccccc4)nc4ccccn34)CC2)nn1` [Example 21], for which the inhibition at 1 µM worked out at 23.7%.

Take `C[C@@H]1CCN(c2nc3cc(Cl)ccc3o2)CCN1C(=O)c1nn2c(c1-c1ccccc1)OCCC2` [Example 59]: the inhibition at 1 µM worked out at 97%.

With `C[C@@H]1CCN(c2cnc(C(F)(F)F)cn2)CCN1C(=O)c1nc2ccccn2c1-c1ccccc1` [Example 83], the inhibition at 1 µM was 27%.

On to `C[C@@H]1CCN(c2ccc(F)cn2)CCN1C(=O)c1c(-c2ccccc2)nn2ccccc12` [Example 24], for which the inhibition at 1 µM is 46%.

In the case of `C[C@@H]1CCN(c2ccc(C(F)(F)F)cn2)CCN1C(=O)c1nc2ccccn2c1-c1ccccc1` [Example 55], the inhibition at 1 µM was determined as 37%.

`COc1ccc(N2CC[C@@H](C)N(C(=O)c3nn4cccnc4c3-c3ccccc3)CC2)nc1` [Example 80]: the inhibition at 1 µM turned out to be 39%.

Take `COc1ccc(N2CC[C@@H](C)N(C(=O)c3nn4ccccc4c3-c3ccccc3)CC2)nc1` [Example 78]: the inhibition at 1 µM was 52%.

Turning to `O=C(c1c(-c2ccccc2)nn2c1COCC2)N1CCCN(c2nc3cc(Cl)ccc3o2)CC1` [Example 2], the inhibition at 1 µM worked out at 43.4%.

Turning to `Cc1cc(C)nc(N2CC3CN(C(=O)c4nc5ccccn5c4-c4ccccc4F)CC3C2)n1` (stereo not shown) [Example 32], the inhibition at 1 µM is 12.1%.

With `C[C@@H]1CCN(c2ccc(C(F)(F)F)cn2)CCN1C(=O)c1nn2c(c1-c1ccccc1)OCCC2` [Example 60], the inhibition at 1 µM amounted to 81%.

As for `COc1ccc(N2CC[C@@H](C)N(C(=O)c3c(-c4ccccc4)nn4ccccc34)CC2)cn1` [Example 15], the inhibition at 1 µM stood at 37.1%.

Consider `C[C@@H]1CCN(c2ccc(C(F)(F)F)cn2)CCN1C(=O)c1nn2cccnc2c1-c1ccccc1` [Example 68], for which the inhibition at 1 µM was determined as 68%.

`C[C@@H]1CCN(c2cnc(C(F)(F)F)cn2)CCN1C(=O)c1nn2ccccc2c1-c1ccccc1` [Example 86]: the inhibition at 1 µM amounted to 63%.

For another assay, the target named is T2, human orexin-1 receptor (Homo sapiens, UniProt O43613).
T2 construct: expressed in transfected cells; host or cells: CHO cells (G418 selection)
T2 sequence (O43613 1-425): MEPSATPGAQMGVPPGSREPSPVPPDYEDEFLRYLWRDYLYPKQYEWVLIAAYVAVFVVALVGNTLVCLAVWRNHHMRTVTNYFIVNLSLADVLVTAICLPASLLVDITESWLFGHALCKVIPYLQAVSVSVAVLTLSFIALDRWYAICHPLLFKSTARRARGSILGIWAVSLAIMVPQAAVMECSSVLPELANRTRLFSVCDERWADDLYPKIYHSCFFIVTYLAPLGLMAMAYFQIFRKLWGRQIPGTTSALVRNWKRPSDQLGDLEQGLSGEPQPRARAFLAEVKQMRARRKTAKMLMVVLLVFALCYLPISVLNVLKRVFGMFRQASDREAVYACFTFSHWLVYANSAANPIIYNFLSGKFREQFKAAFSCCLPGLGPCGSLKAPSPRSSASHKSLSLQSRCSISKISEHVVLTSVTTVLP
The experiment in a line: Intracellular calcium (FLIPR) antagonist assay, CHO cells expressing human orexin-1 receptor, 3 nM orexin-A. Format: cell-based. The note with it: 1 uM compound, orexin-A 3 nM. The procedure: as §1, §2
In the case of `C[C@@H]1CCN(c2cnc(C(F)(F)F)cn2)CCN1C(=O)c1c(-c2ncccn2)nn2ccccc12` [Example 94], the “OXIR % Inh. @ 1 uM” value was 43%.

Turning to `Cc1cc(C)nc(N2CC3CN(C(=O)c4c(-c5ccccc5F)nc5ccccn45)CC3C2)n1` (stereo not shown) [Example 29], the “OXIR % Inh. @ 1 uM” value is 19.54%.

The assay is the same for the next values; noted with them: CHO, 1 uM compound, orexin-A 3 nM, read-out: OXIR % Inh. @ 1 uM.
In the case of `C[C@@H]1CCN(c2nc3cc(Cl)ccc3o2)CCN1C(=O)c1c(-c2ccccc2F)nn2ccccc12` [Example 52], the inhibition at 1 µM stood at 100%.

For `C[C@@H]1CCN(c2nc3cc(Cl)ccc3o2)CCN1C(=O)c1c(-c2ccccc2)nn2c1COCC2` [Example 7], the inhibition at 1 µM came out at 91%.

Turning to `COc1ccc(N2CC[C@@H](C)N(C(=O)c3c(-c4ccccc4)nc4ccccn34)CC2)nn1` [Example 21], the inhibition at 1 µM came out at 20.9%.

Turning to `C[C@@H]1CCN(c2nc3cc(Cl)ccc3o2)CCN1C(=O)c1nn2c(c1-c1ccccc1)OCCC2` [Example 59], the inhibition at 1 µM was 99%.

`C[C@@H]1CCN(c2cnc(C(F)(F)F)cn2)CCN1C(=O)c1nc2ccccn2c1-c1ccccc1` [Example 83]: the inhibition at 1 µM worked out at 69%.

For `C[C@@H]1CCN(c2ccc(F)cn2)CCN1C(=O)c1c(-c2ccccc2)nn2ccccc12` [Example 24], the inhibition at 1 µM was determined as 44.2%.

Consider `C[C@@H]1CCN(c2ccc(C(F)(F)F)cn2)CCN1C(=O)c1nc2ccccn2c1-c1ccccc1` [Example 55], for which the inhibition at 1 µM came out at 97%.

As for `COc1ccc(N2CC[C@@H](C)N(C(=O)c3nn4cccnc4c3-c3ccccc3)CC2)nc1` [Example 80], the inhibition at 1 µM amounted to 78%.

On to `COc1ccc(N2CC[C@@H](C)N(C(=O)c3nn4ccccc4c3-c3ccccc3)CC2)nc1` [Example 78], for which the inhibition at 1 µM amounted to 90%.

As for `O=C(c1c(-c2ccccc2)nn2c1COCC2)N1CCCN(c2nc3cc(Cl)ccc3o2)CC1` [Example 2], the inhibition at 1 µM stood at 64.2%.

`Cc1cc(C)nc(N2CC3CN(C(=O)c4nc5ccccn5c4-c4ccccc4F)CC3C2)n1` (stereo not shown) [Example 32]: the inhibition at 1 µM was determined as 4.01%.

Take `C[C@@H]1CCN(c2ccc(C(F)(F)F)cn2)CCN1C(=O)c1nn2c(c1-c1ccccc1)OCCC2` [Example 60]: the inhibition at 1 µM is 97%.

For `COc1ccc(N2CC[C@@H](C)N(C(=O)c3c(-c4ccccc4)nn4ccccc34)CC2)cn1` [Example 15], the inhibition at 1 µM came out at 38.7%.

On to `C[C@@H]1CCN(c2ccc(C(F)(F)F)cn2)CCN1C(=O)c1nn2cccnc2c1-c1ccccc1` [Example 68], for which the inhibition at 1 µM came to 100%.

As to `C[C@@H]1CCN(c2cnc(C(F)(F)F)cn2)CCN1C(=O)c1nn2ccccc2c1-c1ccccc1` [Example 86], the inhibition at 1 µM stood at 89%.
